Values after ≈ are worked out from the molar mass of the structure shown. “Also recorded” adds a separate entry of the source. Read-outs that look alike come from different tables or passages of the source.
What was measured:
[1] = target: T1, mP2Y14R (Mus musculus, UniProt Q9ESG6); conditions: mP2Y14R-expressing HEK293 cells, 1 μM, fluorescence micrographs; ref [12]; cited from earlier work
T1 sequence (Q9ESG6 1-338): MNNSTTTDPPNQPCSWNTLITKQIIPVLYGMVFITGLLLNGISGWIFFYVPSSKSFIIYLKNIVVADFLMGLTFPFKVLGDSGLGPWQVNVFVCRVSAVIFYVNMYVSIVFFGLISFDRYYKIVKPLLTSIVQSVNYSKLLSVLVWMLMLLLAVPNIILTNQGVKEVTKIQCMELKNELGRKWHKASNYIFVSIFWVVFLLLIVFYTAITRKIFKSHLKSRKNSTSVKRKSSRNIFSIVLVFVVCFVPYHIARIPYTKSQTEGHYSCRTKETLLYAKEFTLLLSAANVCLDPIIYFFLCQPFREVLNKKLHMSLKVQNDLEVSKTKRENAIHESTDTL

[2] = target: CB1 cannabinoid receptor (Homo sapiens, UniProt P21554); assay: PDSP functional agonist/antagonist assay, CB1; format: cell-based
[3] = tested on: ASP/OVA-sensitized mice; assay: Ovalbumin/Aspergillus protease mouse model of allergic asthma, BALF cell counts; conditions: 10 mg/kg ip 30 min prior to allergen challenge, BALF 2 days post-challenge
[4] = Observed solubility in water, DMSO or aqueous DMSO; conditions: for solubility in DMSO at 1 mM: as a zwitterion, 1 mM in DMSO
[5] = tested on: CCI of the sciatic nerve in adult male ICR mice; conditions: mouse, 10 μmol/kg, ip; ref Mufti et al.[12]; cited from earlier work
[6] = target: CB2 cannabinoid receptor (Homo sapiens, UniProt P34972); assay: PDSP functional agonist/antagonist assay, CB2; format: cell-based
[7] = tested on: 46 receptors, transporters, and ion channels; conditions: non-P2YR off-target screen; ref [8],[9]; cited from earlier work
[8] = tested on: other P2YRs; conditions: ref [8],[17]; cited from earlier work
[9] = target: T1, mP2Y14R; conditions: species comparison
[10] = Plasma protein binding in three species
[11] = target: T2, hP2Y14R (Homo sapiens, UniProt Q15391); format: binding; conditions: hP2Y14R, IC50 (nM), Table 2; hP2Y14R-CHO cells; values from Tables 1A and 1B
T2 sequence (Q15391 1-338): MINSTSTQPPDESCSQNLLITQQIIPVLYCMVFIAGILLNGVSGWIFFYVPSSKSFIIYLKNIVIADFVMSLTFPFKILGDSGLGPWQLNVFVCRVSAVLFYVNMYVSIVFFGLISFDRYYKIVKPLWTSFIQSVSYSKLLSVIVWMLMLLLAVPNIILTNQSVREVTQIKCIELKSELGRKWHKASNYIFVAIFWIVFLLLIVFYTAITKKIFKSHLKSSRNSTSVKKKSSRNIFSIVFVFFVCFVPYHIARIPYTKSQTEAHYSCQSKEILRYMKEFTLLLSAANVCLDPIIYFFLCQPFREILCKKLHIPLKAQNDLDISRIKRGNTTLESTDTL

[12] = tested on: CCI of the sciatic nerve in adult male ICR mice; assay: Chronic constriction injury; conditions: mouse, 10 μmol/kg, ip
[13] = Relative lipophilicity from RP-HPLC retention time; format: physicochemical; conditions: RP-HPLC retention time (C18), 10 to 100% acetonitrile in 10 mM triethylammonium acetate
[14] = Aqueous solubility, pION method
[15] = target: T2, hP2Y14R; assay: Competitive binding assay of CHO-hP2Y14R cells at different pH levels
[16] = Pharmacokinetics in the rat, ip and iv; conditions: for plasma concentration at the 12 h time point: highest dose (10 mg/kg)
[17] = target: T3, CYP3A4 (Homo sapiens, UniProt P08684); assay: CYP3A4 inhibition
[18] = target: T4, CYP1A2 (Homo sapiens, UniProt P05177); assay: CYP1A2 inhibition
T4 sequence (P05177 1-516): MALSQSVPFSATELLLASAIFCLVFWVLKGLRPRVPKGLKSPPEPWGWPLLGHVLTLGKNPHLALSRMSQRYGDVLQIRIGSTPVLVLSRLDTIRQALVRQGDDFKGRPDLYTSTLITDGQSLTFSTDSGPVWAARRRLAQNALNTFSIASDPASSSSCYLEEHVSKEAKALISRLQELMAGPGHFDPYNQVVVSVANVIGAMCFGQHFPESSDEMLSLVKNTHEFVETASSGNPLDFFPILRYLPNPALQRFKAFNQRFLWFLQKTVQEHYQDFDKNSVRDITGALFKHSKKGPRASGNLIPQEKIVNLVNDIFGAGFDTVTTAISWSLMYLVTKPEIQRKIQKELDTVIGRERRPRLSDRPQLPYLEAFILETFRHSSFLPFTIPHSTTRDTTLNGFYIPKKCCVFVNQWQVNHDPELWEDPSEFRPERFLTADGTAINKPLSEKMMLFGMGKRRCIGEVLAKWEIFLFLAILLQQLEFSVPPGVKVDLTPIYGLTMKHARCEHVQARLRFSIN

[19] = target: CYP2C9 (Homo sapiens, UniProt P11712); conditions: read-out: CYP2C9 (IC50); ref Yu et al.[23]; cited from earlier work
[20] = human, rat, and mouse plasma, ref Yu et al.[23]; cited from earlier work
[21] = ref Yu et al.[23]; cited from earlier work
[22] = ref Yu et al.[23]; cited from earlier work; remark: listed apart in the source
[23] = target: T3, CYP3A4; conditions: read-out: CYP3A4 (IC50); ref Yu et al.[23]; cited from earlier work
[24] = human (h) microsomes; ref Yu et al.[23]; cited from earlier work
[25] = target: δ-opioid (DOR) receptor (Homo sapiens, UniProt P41143); assay: PDSP off-target binding, DOR
[26] = pH 4, aqueous solubility (pH 4.0, μg/mL), Table 5, pH 4.0, mean ± SD, pION method
[27] = pH 7.4, aqueous solubility (pH 7.4, μg/mL), Table 5, pH 7.4, mean ± SD, pION method

T3 sequence (P08684 whole entry): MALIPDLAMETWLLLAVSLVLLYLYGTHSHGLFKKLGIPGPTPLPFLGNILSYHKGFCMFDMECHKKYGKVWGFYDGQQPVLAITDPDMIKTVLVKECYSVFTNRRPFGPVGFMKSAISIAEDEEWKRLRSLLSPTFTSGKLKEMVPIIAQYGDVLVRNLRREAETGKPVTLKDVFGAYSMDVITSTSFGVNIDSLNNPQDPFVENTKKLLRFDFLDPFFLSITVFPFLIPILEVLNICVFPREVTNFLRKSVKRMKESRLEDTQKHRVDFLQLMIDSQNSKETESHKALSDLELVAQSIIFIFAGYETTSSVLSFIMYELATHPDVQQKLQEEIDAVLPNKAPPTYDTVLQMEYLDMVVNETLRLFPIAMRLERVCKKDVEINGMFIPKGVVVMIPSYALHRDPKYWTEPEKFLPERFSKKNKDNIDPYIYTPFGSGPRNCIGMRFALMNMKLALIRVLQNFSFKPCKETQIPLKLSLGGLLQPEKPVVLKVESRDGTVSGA
CB1 cannabinoid receptor, sequence (P21554 whole entry): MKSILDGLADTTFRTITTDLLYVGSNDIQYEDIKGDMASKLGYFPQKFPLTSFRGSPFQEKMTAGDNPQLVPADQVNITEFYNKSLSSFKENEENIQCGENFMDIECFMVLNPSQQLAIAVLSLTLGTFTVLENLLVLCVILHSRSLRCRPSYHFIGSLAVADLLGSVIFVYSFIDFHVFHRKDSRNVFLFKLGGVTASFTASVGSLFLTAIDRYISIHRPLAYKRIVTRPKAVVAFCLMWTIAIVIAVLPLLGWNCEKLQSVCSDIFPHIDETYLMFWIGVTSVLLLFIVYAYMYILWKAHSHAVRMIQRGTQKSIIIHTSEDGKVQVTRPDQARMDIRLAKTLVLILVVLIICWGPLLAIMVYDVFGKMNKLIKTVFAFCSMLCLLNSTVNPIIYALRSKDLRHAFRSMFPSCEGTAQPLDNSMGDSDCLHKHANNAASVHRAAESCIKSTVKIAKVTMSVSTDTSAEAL
δ-opioid (DOR) receptor, sequence (P41143 whole entry): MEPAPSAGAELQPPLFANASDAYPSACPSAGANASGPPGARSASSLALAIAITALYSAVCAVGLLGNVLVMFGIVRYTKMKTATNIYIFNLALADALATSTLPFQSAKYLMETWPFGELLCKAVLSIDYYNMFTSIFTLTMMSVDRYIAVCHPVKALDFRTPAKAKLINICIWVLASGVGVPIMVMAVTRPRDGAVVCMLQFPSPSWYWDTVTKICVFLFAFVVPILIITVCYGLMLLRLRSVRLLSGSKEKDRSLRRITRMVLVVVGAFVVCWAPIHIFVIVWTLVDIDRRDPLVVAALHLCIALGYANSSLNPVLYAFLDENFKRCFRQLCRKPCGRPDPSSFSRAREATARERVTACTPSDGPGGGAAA
CB2 cannabinoid receptor, sequence (P34972 whole entry): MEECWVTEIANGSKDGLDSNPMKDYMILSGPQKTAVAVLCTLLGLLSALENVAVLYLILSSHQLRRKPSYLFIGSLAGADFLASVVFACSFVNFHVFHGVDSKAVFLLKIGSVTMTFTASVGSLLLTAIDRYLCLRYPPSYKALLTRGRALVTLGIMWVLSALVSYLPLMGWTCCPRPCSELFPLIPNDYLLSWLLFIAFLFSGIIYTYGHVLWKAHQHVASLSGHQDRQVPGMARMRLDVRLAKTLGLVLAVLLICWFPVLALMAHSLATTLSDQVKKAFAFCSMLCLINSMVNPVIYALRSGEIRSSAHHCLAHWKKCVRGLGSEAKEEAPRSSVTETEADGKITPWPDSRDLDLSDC
CYP2C9, sequence (P11712 whole entry): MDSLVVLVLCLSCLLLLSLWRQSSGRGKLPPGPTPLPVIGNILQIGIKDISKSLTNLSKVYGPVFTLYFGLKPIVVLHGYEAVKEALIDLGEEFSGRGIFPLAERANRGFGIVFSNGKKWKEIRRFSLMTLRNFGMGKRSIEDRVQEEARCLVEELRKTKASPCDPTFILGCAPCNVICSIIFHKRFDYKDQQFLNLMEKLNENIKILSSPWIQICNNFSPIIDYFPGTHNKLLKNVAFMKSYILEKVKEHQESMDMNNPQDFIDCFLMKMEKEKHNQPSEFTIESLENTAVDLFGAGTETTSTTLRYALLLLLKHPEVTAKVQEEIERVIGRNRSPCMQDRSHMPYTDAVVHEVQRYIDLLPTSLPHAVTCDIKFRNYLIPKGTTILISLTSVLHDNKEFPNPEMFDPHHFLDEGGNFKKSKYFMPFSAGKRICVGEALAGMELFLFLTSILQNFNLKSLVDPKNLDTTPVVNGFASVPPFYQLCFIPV

O=C(O)c1cc(-c2ccc(C3CCNCC3)cc2)c2ccc(-c3ccc(C(F)(F)F)cc3)cc2c1 [Compound 1, 4-[4-(4-piperidinyl)-phenyl]-7-[4-(trifluoromethyl)phenyl]-2-naphthalenecarboxylic acid, reference compound]
inhibition of intact cell binding of 36 [1]: almost completely inhibited | IC50 [2]: > 10 µM | effect on eosinophilic airway inflammation [3]: protected; also recorded: strongly attenuated eosinophilic airway inflammation | solubility in DMSO at 1 mM [4]: failed to dissolve | efficacy in CCI model [5]: effective | IC50 [6]: > 10 µM

O=C(O)c1cc(-c2ccc(C3CCNCC3)cc2)cc(-n2cc(-c3ccc(C(F)(F)F)cc3)nn2)c1 [Compound 2, reference compound]
off-target interactions [7]: no detected off-target interactions | effect on eosinophilic airway inflammation [3]: inactive | activity at other P2YRs [8]: inactive

NCCOCCOCCOCCOCCOCCOCCC(=O)N1CCC(c2ccc(-c3cc(C(=O)O)cc4cc(-c5ccc(C(F)(F)F)cc5)ccc34)cc2)CC1 [Compound 12, 4-(4-(1-(1-Amino-3,6,9,12,15,18-hexaoxahenicosan-21-oyl)piperidin-4-yl)phenyl)-7-(4-(trifluoromethyl)phenyl)-2-naphthoic Acid]
fold greater affinity at the mouse homologue than at the hP2Y14R [9]: 2 fold | plasma protein binding [10]: high | IC50 [11]: 963 ± 417 nM | effect on the hind paw response contralateral to the injury [12]: No effect | time of peak protection post-injection [12]: 1 to 2 h | reversal of CCI-induced mechano-allodynia ([12]; 7 days post-CCI, ipsilateral hind paw): reduced chronic pain; also recorded: fully efficacious | effect on eosinophilic airway inflammation [3]: inactive | lipophilicity (Δk), relative to 1 [13]: 0.71 ± 0.03 | solubility ([4]; water): ≥ 150 mM | solubility ([14]; pH 4): 8.02 ± 1.01 µg/mL (≈ 9.89 µM) | solubility ([14]; pH 7.4): 7.16 ± 1.16 µg/mL (≈ 8.83 µM) | fold greater aqueous solubility than 1 ([14]; pH 7.4, relative to 1): ~20 fold

O=C(O)c1cc(-c2ccc(C34CCN(CC3)CC4)cc2)c2ccc(-c3ccc(C(F)(F)F)cc3)cc2c1 [Compound 17, 4-(4-(Quinuclidin-4-yl)phenyl)-7-(4-(trifluoromethyl)phenyl)-2-naphthoic Acid]
plasma protein binding [10]: high | IC50 [15]: 0.0308 ± 0.0022 µM | effect on eosinophilic airway inflammation [3]: protected | time at which maximal plasma concentration was reached [16]: 3 to 4 h | plasma concentration at the 12 h time point [16]: 200 to 400 ng/kg | solubility [4]: ≥ 1000 µg/mL | solubility in DMSO at 1 mM [4]: readily soluble | solubility [14, 26]: 14.3 ± 0.5 µg/mL (≈ 28.5 µM) | solubility [14, 27]: 0.44 ± 0.06 µg/mL (≈ 0.877 µM)

O=C(O)c1cc(-c2ccc(C34CCN(CC3)CC4)cc2)cc(-n2cc(-c3ccc(C(F)(F)F)cc3)nn2)c1 [Compound 18, 4′-(Quinuclidin-4-yl)-5-(4-(4-(trifluoromethyl)phenyl)-1H-1,2,3-triazol-1-yl)-[1,1′-biphenyl]-3-carboxylic Acid]
IC50 [17]: 9.94 µM | plasma protein binding [10]: high | IC50 [18]: 14.1 µM | time at which maximal plasma concentration was reached [16]: 3 to 4 h | plasma concentration at the 12 h time point [16]: 200 to 400 ng/kg | solubility [14, 26]: 14.4 ± 0.3 µg/mL (≈ 27.8 µM) | solubility [14, 27]: < 0.1 µg/mL

NC(=O)c1ccc(-c2cc(C(=O)O)cc(-n3cc(-c4ccc(C(F)(F)F)cc4)nn3)c2)cc1 [Compound 22]
IC50 [19]: > 30 µM | plasma stability (three species) (% remaining at 120 min) [20]: 94–100% | simulated intestinal fluid (% remaining at 120 min) [21]: 100% | simulated gastric fluid (% remaining at 120 min) [22]: 100% | IC50 [23]: > 30 µM | microsomal stability (t1/2, min) [24]: 145 min

NCCCNC(=O)c1ccc(-c2cc(C(=O)O)cc(-c3cn(-c4ccc(C(F)(F)F)cc4)nn3)c2)s1 [Compound 26, 3-(5-((3-Aminopropyl)carbamoyl)thiophen-2-yl)-5-(1-(4-(trifluoromethyl)phenyl)-1H-1,2,3-triazol-4-yl)benzoic Acid]
Ki [25]: 2.96 µM
